Measured values from patent publication US8431715B2, “Thiazole compound (as PPARδ) ligand and pharmaceutical, cosmetic and health food comprised thereof” (Seoul National University Industry Foundation, priority 2007, dated 2013).
Where two headings read alike, the source gives them in different places.

Key:
PPARδ [1] = target: T1, PPARδ (Homo sapiens, UniProt Q03181); settings: literature; cited from earlier work
T1 sequence (Q03181 1-441): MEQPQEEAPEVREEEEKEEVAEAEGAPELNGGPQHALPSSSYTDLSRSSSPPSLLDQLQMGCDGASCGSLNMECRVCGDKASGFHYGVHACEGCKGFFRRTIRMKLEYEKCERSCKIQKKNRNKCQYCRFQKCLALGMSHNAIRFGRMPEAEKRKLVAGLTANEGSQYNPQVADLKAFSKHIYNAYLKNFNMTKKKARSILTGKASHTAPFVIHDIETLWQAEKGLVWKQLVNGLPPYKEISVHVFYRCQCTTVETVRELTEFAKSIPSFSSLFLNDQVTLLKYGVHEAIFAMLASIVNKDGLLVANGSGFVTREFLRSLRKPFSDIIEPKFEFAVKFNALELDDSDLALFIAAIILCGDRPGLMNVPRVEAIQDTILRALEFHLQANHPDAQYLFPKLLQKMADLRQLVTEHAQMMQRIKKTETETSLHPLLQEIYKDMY

C57BL/6 mice [2] = assay: Obesity inhibitory effect, high-fat feed; format: in vivo; settings: 10 mg/Kg/day oral, 35% fat feed for 35 days; vehicle 58.9%
Description: An animal test using mice was performed to confirm the in vivo effect of the compound of the present invention. C57BL/6 (SLC Co.) mice at 14 weeks were used. To induce obesity, feeds containing 35% fat were given.

mice = assay: GTT (glucose tolerance test), diabetes improving effect; format: in vivo; settings: glucose 1.5 g/Kg intra-abdominal, oral pre-treatment 78 days
Description: GTT (glucose tolerance test) was performed to confirm the diabetes improving effect of the compound of the present invention. Glucose (1.5 g/Kg) was intra-abdominally administered to the mice pre-treated orally with samples for 78 days. Blood glucose was measured every hour. Fasting blood glucose was lower in the group treated with the compound of the present invention than in the group treated with vehicle or GW501516.

C57BL/6 mice [3] = assay: Hyperlipidemia improving effect, blood HDL level; format: in vivo; settings: 10 mg/kg/day oral, high fat feeds, 6 weeks, serum
Description: In vivo animal test using C57BL/6 (SLC Co.) mice at 6 weeks was performed to confirm the hyperlipidemia improving effect of the compound of the present invention. […] 6 weeks later, blood was taken from orbital veins. Serum was separated and blood HDL level was measured by biochemical method.

PPARα = target: T2, PPARα (Homo sapiens, UniProt Q07869); assay: Transfection assay (luciferase reporter) in CV-1 cells, PPARα; format: cell-based; settings: 24 hours treatment
T2 construct: Full length PPARs plasmid DNA, reporter DNA confirming PPARs activity owing to its luciferase activity; expressed in transfected cells; host or cells: CV-1 cells
T2 sequence (Q07869 1-468): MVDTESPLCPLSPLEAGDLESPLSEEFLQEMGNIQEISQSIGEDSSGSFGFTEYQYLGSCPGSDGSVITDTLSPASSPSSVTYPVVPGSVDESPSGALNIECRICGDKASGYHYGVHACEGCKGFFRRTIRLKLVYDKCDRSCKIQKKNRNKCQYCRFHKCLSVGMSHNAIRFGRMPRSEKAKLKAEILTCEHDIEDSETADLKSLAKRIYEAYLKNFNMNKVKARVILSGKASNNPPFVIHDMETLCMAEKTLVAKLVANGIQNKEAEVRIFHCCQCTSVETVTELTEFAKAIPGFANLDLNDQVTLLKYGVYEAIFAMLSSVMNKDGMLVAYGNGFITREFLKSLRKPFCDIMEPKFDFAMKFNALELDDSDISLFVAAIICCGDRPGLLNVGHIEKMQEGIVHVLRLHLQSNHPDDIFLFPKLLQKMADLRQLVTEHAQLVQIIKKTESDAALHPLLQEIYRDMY
Description: (§1) The PPARδ activities of the R-form compound represented by formula 1 of the present invention and the S-form compound represented by formula 2 were measured by transfection assay. In addition, the selectivity to PPAR subtypes, PPARα and PPARγ, was examined. Cytotoxicity was tested by MTT assay and in vivo activity and toxicity was investigated by animal experiment using mice.
(§2) CV-1 cells were used in this assay. The cells were inoculated in a 96-well plate containing DMEM supplemented with 10% FBS, DBS (delipidated) and 1% penicillin/streptomycin and cultured in a 37 °C, 5% CO2 incubator. The experiment was performed according to the steps of inoculation, transfection, sample treatment and confirmation. Particularly, CV-1 cells were inoculated in a 96 well-plate (5000 cells/well), followed by transfection 24 hours later. Full length PPARs plasmid DNA, reporter DNA confirming PPARs activity owing to its luciferase activity, β-galactosidase DNA providing information on transfection efficiency, and transfection reagent were used for the transfection. The compounds of formula 1 and formula 2 were dissolved in dimethylsulfoxide (DMSO), which were treated to the cells via media at different concentrations. […] Luciferase activity and β-galactosidaseactivity were measured with Luminometer and a microplate reader. […] A graph was made with those values and EC50 was calculated.

PPARγ = target: T3, PPARγ (Homo sapiens, UniProt P37231); assay: Transfection assay (luciferase reporter) in CV-1 cells, PPARγ; format: cell-based; settings: 24 hours treatment
T3 construct: Full length PPARs plasmid DNA, reporter DNA confirming PPARs activity owing to its luciferase activity; expressed in transfected cells; host or cells: CV-1 cells
T3 sequence (P37231 1-505): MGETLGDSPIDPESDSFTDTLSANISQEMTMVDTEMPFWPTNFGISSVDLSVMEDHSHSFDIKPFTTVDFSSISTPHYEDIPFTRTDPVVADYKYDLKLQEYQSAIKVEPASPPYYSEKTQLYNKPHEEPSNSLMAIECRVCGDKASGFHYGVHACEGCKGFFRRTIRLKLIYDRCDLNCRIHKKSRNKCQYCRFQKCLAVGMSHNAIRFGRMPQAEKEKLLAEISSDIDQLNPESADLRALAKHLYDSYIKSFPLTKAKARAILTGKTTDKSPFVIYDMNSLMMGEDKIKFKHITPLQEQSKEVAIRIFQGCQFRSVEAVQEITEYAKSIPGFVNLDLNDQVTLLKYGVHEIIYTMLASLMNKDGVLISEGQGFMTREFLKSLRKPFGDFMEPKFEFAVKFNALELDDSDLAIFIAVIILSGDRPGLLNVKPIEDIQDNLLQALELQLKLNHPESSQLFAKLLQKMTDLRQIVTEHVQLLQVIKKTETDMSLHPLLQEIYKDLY
Description: as §1, §2

CV-1 cells = assay: MTT assay, cytotoxicity; format: cell-based; settings: 24 hours, even at the concentration of 100,000 times the EC50 value
Description: MTT assay was performed to test cytotoxicity of the compounds of the present invention. MTT is a yellow substance soluble in water, but when it is introduced into a living cell, it turns into a purple insoluble crystal by dehydrogenase in mitochondria. Cytotoxicity can be confirmed by measuring OD550 after dissolving MTT in dimethylsulfoxide. The experiment was performed as follows.
CV-1 cells were inoculated in a 96-well plate (5000 cells/well). The cells were cultured in a 37[…] 5% CO2 incubator for 24 hours, and treated with the compounds of formula 1 and formula 2 at different concentrations. Then, the cells were cultured for 24 hours again, to which MTT reagent was added. After culturing for 15 minutes, the generated purple crystals were dissolved in dimethylsulfoxide. Optical density was measured with a microplate reader to confirm cytotoxicity.

PPARδ [4] = target: T1, PPARδ; assay: Transfection assay (luciferase reporter) in CV-1 cells, PPARδ; format: cell-based; set-up: Full length PPARs plasmid DNA, reporter DNA confirming PPARs activity owing to its luciferase activity; expressed in transfected cells; host or cells: CV-1 cells; settings: CV-1 cells, 24 hours treatment
Description: as §1
CV-1 cells were used in this assay. The cells were inoculated in a 96-well plate containing DMEM supplemented with 10% FBS, DBS (delipidated) and 1% penicillin/streptomycin and cultured in a 37 °C, 5% CO2 incubator. The experiment was performed according to the steps of inoculation, transfection, sample treatment and confirmation. Particularly, CV-1 cells were inoculated in a 96 well-plate (5000 cells/well), followed by transfection 24 hours later. Full length PPARs plasmid DNA, reporter DNA confirming PPARs activity owing to its luciferase activity, β-galactosidase DNA providing information on transfection efficiency, and transfection reagent were used for the transfection. The compounds of formula 1 and formula 2 were dissolved in dimethylsulfoxide (DMSO), which were treated to the cells via media at different concentrations. After culturing the cells in the incubator for 24 hours, the cells were lysed by using lysis buffer. Luciferase activity and β-galactosidaseactivity were measured with Luminometer and a microplate reader. The obtained values of luciferase were modified by the values of β-galactosidase. A graph was made with those values and EC50 was calculated.

CCCc1c(OCCCOc2ccc(OCC(=O)O)cc2)ccc(C(C)=O)c1O [L-165041]
EC50 (PPARδ [1]): 530 nM
selectivity to hPPARδ over PPARα or PPARγ (PPARδ [1]): 10 times

Cc1cc(SCc2sc(-c3ccc(C(F)(F)F)cc3)nc2C)ccc1OCC(=O)O [GW501516, [2-methyl-4-[[[4-methyl-2-[4-(trifluoromethyl)phenyl]-1,3-thiazol-5-yl]methyl]sulfanyl]phenoxy]acetic acid, reference compound]
weight increase (C57BL/6 mice [2]): 26.5%
blood glucose compared with vehicle (mice): lower blood glucose than the vehicle treated group
recovery of blood glucose level to normal (mice): not recovered to normal
HDL level increase compared with the control (C57BL/6 mice [3]): 36.3%

Cc1cc(S[C@@H](Cc2ccccc2)c2sc(-c3ccc(C(F)(F)F)cc3)nc2C)ccc1OCC(=O)O [formula 2]
EC50 PPARα (PPARα): ia
EC50 PPARγ (PPARγ): ia
cytotoxicity (CV-1 cells): not to have cytotoxicity
EC50 (PPARδ [4]): 5.1 nM
